Experimental data as given in patent publication US10993957B2 (NuCana plc, priority 2011, dated 2021).
Like-named read-outs stand apart in the source and are kept apart here.

Experiments:
L1210/0 = test: Cytostatic assay, L1210/0 cells; format: cell-based, murine; settings: for IC50: read-out: IC50 L1210/0
Excerpt: (§1) The cell lines employed were L1210/0 (a leukemia cell line), FM3A/0 (a breast cancer cell line), Cem/0 (an acute lymphoblastic leukemia cell line) and HeLa (a cervical cell line).

L1210/TK^− = test: Cytostatic assay, thymidine kinase-deficient L1210/TK^− cells; format: cell-based, murine; settings: for CC50: L1210, Table 1, read-out: CC50 L1210/TK^−; for IC50: Table 6, read-out: IC50 L1210/TK^−
Cem/0 = test: Cytostatic assay, CEM/0 cells; format: cell-based, human; settings: for CC50: Table 1, read-out: CC50 Cem/0; for IC50: Table 6, read-out: IC50 Cem/0
Excerpt: as §1

Cem/TK^− = test: Cytostatic assay, thymidine kinase-deficient CEM/TK^− cells; format: cell-based, human; settings: for CC50: Table 1, read-out: CC50 Cem/TK^−; for IC50: Table 6, read-out: IC50 Cem/TK^−
HeLa = test: Cytostatic assay, HeLa cells; format: cell-based; settings: for IC50: Table 6, read-out: IC50 HeLa; for CC50: Table 1, read-out: CC50 HeLa
Excerpt: as §1

HeLa/TK^− = test: Cytostatic assay, HeLa/TK^− cells; format: cell-based; settings: for IC50: Table 6, read-out: IC50 HeLa/TK^−
Excerpt: as §1

L1210.Hyor = test: Cytostatic assay, Mycoplasma hyorhinis-infected L1210 cells; settings: for % Retention: CC50 L1210 × 100 ÷ CC50 L1210/Hyor
Excerpt: Murine leukaemia L1210/0 and human T-lymphocyte CEM/0 cells were obtained from the American Type Culture Collection (ATCC) (Rockville, Md.). Human glioblastoma U87 cells were kindly provided by Dr. E. Menue (Institut Pasteur, Paris, France). […] S. Eriksson (currently at Uppsala University, Uppsala, Sweden) and Prof A. Karlsson (Karolinska Institute, Stockholm, Sweden). […] All cells were maintained in Dulbecco's modified Eagle's medium (DMEM) (Invitrogen, Carlsbad, Calif.) with 10% foetal bovine serum (FBS) (Biochrom AG, Berlin, Germany), 10 mM Hepes and 1 mM Sodium Pyruvate (Invitrogen). Cells were grown at 37° C. in a humidified incubator with a gas phase of 5% CO2.
Monolayer cells (U87 and U87.Hyor) were seeded in 48-well microtiter plates (Nunc™, Roskilde, Denmark) at 10,000 cells/well. After 24 hours, an equal volume of fresh medium containing the test compounds was added. On day 5, cells were trypsinized and counted in a Coulter counter (Analis, Suarlée, Belgium). Suspension cells (L1210/0, L1210/TK^−, L1210.Hyor, CEM/0, CEM/TK^−) were seeded in 96-well microtiter plates (Nunc™) at 60,000 cells/well in the presence of a given amount of the test compounds. The cells were allowed to proliferate for 48 h (L1210) or 72 hours (CEM) and were then counted in a Coulter counter.
Samples were also assayed for their % retention of activity in mycoplasma infected cells.
The L1210/0 cell cultures were infected with the mycoplasma species M. hyorhinis (cells designated: L1210.Hyor).

Cem/hEnt-1 = test: Cytostatic assay, CEM cells containing the hEnt1 transporter; format: cell-based
Excerpt: (§2) Data are mean (±SD) of at least two to four independent experiments. Table 8 identifies the phosphoramidate motif of compounds embodying the present invention, as discussed above with respect to Table 6, but with “Naph” standing for 1-naphthyl.

Cem/hEnt-0 = test: Cytostatic assay, CEM cells lacking the hEnt1 transporter; format: cell-based; settings: read-out: IC50 Cem/hEnt-0
Excerpt: as §2

FM3A/0 = test: Cytostatic assay, FM3A/0 cells; format: cell-based; settings: Mus musculus, FM3A/0, read-out: CC50 FM3A/0
Description: The samples were assayed for biological activity versus a range of tumour cell lines with data recorded in Table 1 below. […] The cell lines employed were L1210/0 (a leukemia cell line), FM3A/0 (a breast cancer cell line), Cem/0 (an acute lymphoblastic leukemia cell line) and HeLa (a cervical cell line).

[1] = Mus musculus, L1210/0, Table 1, read-out: CC50 L1210/0
[2] = Mus musculus, L1210/0, Table 2, mycoplasma negative cells, read-out: CC50 L1210
[3] = Mus musculus, L1210, read-out: CC50 L1210/Hyor
[4] = Mus musculus, L1210, read-out: IC50 L1210.Hyor
[5] = Homo sapiens, CCRF-CEM, read-out: IC50 Cem/hEnt-1
[6] = read-out: IC50 Cem/hEnt-1 + NBMPR, in the presence of NBMPR
[7] = read-out: IC50 Cem/hEnt-1 + dipyridamole, in the presence of dipyridamole
[8] = read-out: IC50 L1210.Hyor, Table 7

Compound | CC50 (L1210/0; [1]) [nM] | CC50 (L1210/0; [2]) [nM] | IC50 (L1210/0; Mus musculus, L1210/0, Table 6) [nM] | IC50 (L1210/0; Mus musculus, L1210/0, Table 7) [nM] | CC50 (L1210/TK^−; Mus musculus) [nM] | IC50 (L1210/TK^−; Mus musculus, L1210) [nM] | CC50 (Cem/0; Homo sapiens, CCRF-CEM) [nM] | IC50 (Cem/0; Homo sapiens, CCRF-CEM) [nM] | CC50 (Cem/TK^−; Homo sapiens, CEM-TK(-)) [µM] | IC50 (Cem/TK^−; Homo sapiens, CEM-TK(-)) [µM] | IC50 (HeLa; Homo sapiens, HeLa) [nM] | IC50 (HeLa/TK^−; Homo sapiens, HeLa) [µM] | % Retention (L1210.Hyor) [%] | CC50 (L1210.Hyor; [3]) [nM] | IC50 (L1210.Hyor; [4]) [nM] | IC50(L1210.Hyor)/IC50(L1210/0) (L1210.Hyor; Table 7) | IC50 (Cem/hEnt-1; [5]) [nM] | IC50 (Cem/hEnt-1; [6]) [nM] | IC50 (Cem/hEnt-1; [7]) [nM] | IC50 (Cem/hEnt-0; Homo sapiens, CCRF-CEM) [nM] | other results
CC(C)(NP(=O)(OC[C@H]1O[C@@H](n2cc(F)c(=O)[nH]c2=O)CC1O)Oc1ccccc1)C(=O)OCc1ccccc1 (stereo partly drawn) [CPF 393, 5-Fluoro-2′deoxyuridine-5′-O-[phenyl (benzoxy-α,α-dimethylglycine)]phosphate] | 17 ± 3 | 29 | 17 ± 3 | 29 ± 1 | 180 ± 50 | 180 ± 50 | 230 ± 40 | 230 ± 40 | 4.8 ± 0.7 | 4.8 ± 0.7 | 240 ± 70 | 3.7 ± 0.1 | 145 | 20 | 20 ± 2 | 0.69 | 170 ± 60 | 610 | 260 | 1200 ± 110 | –
CC(C)(NP(=O)(OCC1OC(n2cc(F)c(=O)[nH]c2=O)CC1O)Oc1cccc2ccccc12)C(=O)OCc1ccccc1 (stereo not drawn) [CPF 395, 5-Fluoro-2′deoxyuridine-5′-O-[1-naphthyl (benzoxy-α,α-dimethylglycine)]phosphate] | – | – | – | – | – | – | – | – | – | – | – | – | 42 | – | – | 2.4 | – | – | – | – | CC50 (L1210/0; Table 2, mycoplasma negative cells, read-out: CC50 L1210): 19 nM; IC50 (L1210/0; Table 6): 11 ± 5 nM; IC50 (L1210/0; Table 7): 19 ± 4 nM; IC50 (L1210/TK^−): 130 ± 40 nM; IC50 (Cem/0): 160 ± 20 nM; IC50 (Cem/TK^−): 2.4 ± 0.8 µM; IC50 (HeLa): 78 ± 20 nM; IC50 (HeLa/TK^−): 3.1 ± 0.6 µM; CC50 (L1210.Hyor; read-out: CC50 L1210/Hyor, Table 2, mycoplasma positive cells): 45 nM; IC50 (L1210.Hyor; [8]): 45 ± 4 nM; IC50 (Cem/hEnt-1; Table 8, read-out: IC50 Cem/hEnt-1): 50 ± 30 nM; IC50 (Cem/hEnt-1; in the presence of NBMPR, read-out: IC50 Cem/hEnt-1 + NBMPR): 280 nM; IC50 (Cem/hEnt-1; in the presence of dipyridamole, read-out: IC50 Cem/hEnt-1 + dipyridamole): 160 nM; IC50 (Cem/hEnt-0; Table 8): 400 ± 130 nM
C[C@H](NP(=O)(OC[C@H]1O[C@@H](n2cc(F)c(=O)[nH]c2=O)CC1O)Oc1cccc2ccccc12)C(=O)OC1CCCCC1 (stereo partly drawn) [CPF 509, 5-Fluoro-2′deoxyuridine-5′-O-[1-naphthyl (cyclohexoxy-L-alaninyl)]phosphate] | 43 ± 23 | – | 43 ± 23 | 36 ± 17 | 150 | 150 | 57 ± 55 | 57 ± 55 | – | 1 ± 0.1 | 90 ± 14 | – | – | – | 49 ± 4 | 1.4 | – | – | – | – | CC50 (FM3A/0): 310 ± 60 nM; CC50 (HeLa; Homo sapiens, HeLa): 90 ± 14 nM
CCOC(=O)C(C)(C)NP(=O)(OC[C@H]1O[C@@H](n2cc(F)c(=O)[nH]c2=O)CC1O)Oc1cccc2ccccc12 (stereo partly drawn) [CPF 396, 5-Fluoro-2′deoxyuridine-5′-O-[1-naphthyl (ethoxy-α,α-dimethylglycine)]phosphate] | 64 ± 8 | 56 | 64 ± 8 | 56 ± 40 | 820 ± 160 | 820 ± 160 | 360 ± 50 | 360 ± 50 | 6.9 ± 1.8 | 6.9 ± 1.8 | 200 ± 120 | 3.2 | 33 | 170 | 170 ± 30 | 3 | 210 ± 70 | 620 | 520 | 1400 ± 200 | –
CCOC(=O)C(C)(C)NP(=O)(OC[C@H]1O[C@@H](n2cc(F)c(=O)[nH]c2=O)CC1O)Oc1ccccc1 (stereo partly drawn) [CPF 394, 5-Fluoro-2′deoxyuridine-5′-O-[phenyl (ethoxy-α,α-dimethylglycine)]phosphate] | 39 ± 1 | 30 | 39 ± 1 | 30 ± 0.5 | 4600 | 4600 | 650 ± 160 | 650 ± 160 | 22 ± 1 | 22 ± 1 | 590 ± 90 | 17 ± 2 | 12 | 260 | 260 ± 10 | 8.7 | 370 ± 140 | 2560 | 2350 | 5800 ± 500 | –
CCCCCOC(=O)[C@H](C)NP(=O)(OC[C@H]1O[C@@H](n2cc(F)c(=O)[nH]c2=O)CC1O)Oc1cccc2ccccc12 (stereo partly drawn) [CPF 581, 5-Fluoro-2′-deoxyuridine-5′-O-[1-naphthyl-(pentoxy-L-alaninyl)] phosphate] | 2.8 ± 1 | 3.7 | 2.8 ± 1 | 2.1 ± 0.07 | 130 ± 130 | 130 ± 130 | 15 ± 6 | 15 ± 6 | 0.28 ± 0.04 | 0.28 ± 0.04 | 29 ± 23 | 0.44 ± 0.35 | 22 | 17 | 6 ± 1.4 | 2.9 | – | – | – | – | CC50 (HeLa; Homo sapiens, HeLa): 29 ± 23 nM; CC50 (HeLa/TK^−; Homo sapiens, HeLa, Table 1, read-out: CC50 HeLa/TK^−): 440 ± 350 nM
COC(=O)[C@H](C)NP(=O)(OC[C@H]1O[C@@H](n2cc(F)c(=O)[nH]c2=O)CC1O)Oc1ccccc1 (stereo partly drawn) [CPF 382, 5-Fluoro-2′-deoxyuridine-5′-O-[phenyl(methoxy-L-alaninyl)] phosphate, reference compound] | 25.5 | – | 22 ± 7 | 40 ± 16 | 37800 | 41000 ± 3000 | 346 | 700 ± 370 | 32.7 | 35 ± 12 | 280 ± 140 | 4.7 ± 0.4 | – | – | 870 ± 280 | 22 | – | – | – | – | –
CSCCC(NP(=O)(OCC1OC(n2cc(F)c(=O)[nH]c2=O)CC1O)Oc1cccc2ccccc12)C(=O)OCc1ccccc1 (stereo not shown) [Nap Bn Met] | – | – | – | – | – | – | – | – | – | – | – | – | – | – | – | 3.7 | – | – | – | – | IC50 (L1210/0; Table 6): 72 ± 1 nM; IC50 (L1210/0; Table 7): 54 ± 13 nM; IC50 (L1210/TK^−): 1900 ± 200 nM; IC50 (Cem/0): 190 ± 100 nM; IC50 (Cem/TK^−): 11 ± 1 µM; IC50 (HeLa): 87 ± 17 nM; IC50 (HeLa/TK^−): 8.3 µM; IC50 (L1210.Hyor; [8]): 200 ± 98 nM
O=C(OCc1ccccc1)C(Cc1ccccc1)NP(=O)(OCC1OC(n2cc(F)c(=O)[nH]c2=O)CC1O)Oc1ccccc1 (stereo not shown) [Ph Bn Phe] | – | – | – | – | – | – | – | – | – | – | – | – | – | – | – | 35 | – | – | – | – | IC50 (L1210/0; Table 6): 36 ± 10 nM; IC50 (L1210/0; Table 7): 16 ± 1.4 nM; IC50 (L1210/TK^−): 39000 ± 4000 nM; IC50 (Cem/0): 250 ± 20 nM; IC50 (Cem/TK^−): 11 ± 3 µM; IC50 (HeLa): 14 ± 7 nM; IC50 (HeLa/TK^−): 12 ± 2 µM; IC50 (L1210.Hyor; [8]): 560 ± 23 nM
O=c1[nH]c(=O)n([C@H]2C[C@H](O)[C@@H](COP(=O)(O)O)O2)cc1F [5-FdUMP, 5-fluoro-2′-deoxyuridine-5′-monophosphate, reference compound] | – | – | – | – | – | – | – | – | – | – | – | – | – | – | – | – | – | – | – | – | IC50 (Cem/hEnt-1; Homo sapiens, CCRF-CEM, Table 8, read-out: IC50 Cem/hEnt-1): 50 ± 20 nM; IC50 (Cem/hEnt-1; Homo sapiens, CCRF-CEM, in the presence of NBMPR, read-out: IC50 Cem/hEnt-1 + NBMPR): 1060 nM; IC50 (Cem/hEnt-1; Homo sapiens, CCRF-CEM, in the presence of dipyridamole, read-out: IC50 Cem/hEnt-1 + dipyridamole): 1740 nM; IC50 (Cem/hEnt-0; Homo sapiens, CCRF-CEM, Table 8): 3600 ± 690 nM
